Assay results as given in ChEMBL document CHEMBL1949526, “Cyclic hydroxyamidines as amide isosteres: discovery of oxadiazolines and oxadiazines as potent and highly efficacious γ-secretase modulators in vivo” (J Med Chem, 2012).

Key:
[1] = Half life in monkey at 3 mg/kg, iv; assay type: ADME, organism-based, Macaca mulatta; design: dose 3 mg/kg, route intravenous; settings: rhesus monkey, in vivo
[2] = Oral bioavailability in rat at 10 mg/kg; assay type: ADME, organism-based; settings: in vivo
[3] = molecular target: Gamma-secretase; assay: Modulation of gamma-secretase-mediated cleavage of human APP Swedish and London mutation expressed in HEK293 cells assessed as reduction of total amyloid beta level after 5 hrs by sandwich immunoassay; assay type: cell-based
[4] = Cmax in dog at 10 mg/kg, po; assay type: ADME, organism-based, Canis lupus familiaris; design: dose 10 mg/kg, route oral; settings: in vivo
[5] = species on record: Rattus norvegicus; assay: Toxicity in rat assessed as decrease in thymus size at highest tolerable dose; assay type: organism-based; settings: in vivo
[6] = species on record: Rattus norvegicus; assay: Toxicity in rat assessed as effect on HES-1 expression in jejunum at highest tolerable dose; assay type: organism-based; settings: in vivo
[7] = Half life in dog at 3 mg/kg, iv; assay type: ADME, organism-based, Canis lupus familiaris; design: dose 3 mg/kg, route intravenous; settings: in vivo
[8] = tested on: Rattus norvegicus; assay: Antialzheimer activity in CD rat assessed as reduction in amyloid beta42 level in plasma at 3 mg/kg, po after 3 hrs by alphaLISA analysis; assay type: functional; design: scale not given: the % may be the effect or the level left
[9] = Permeability from apical to basolateral side of human Caco2 cells; assay type: ADME, cell-based; settings: Caco-2, read-out: permeability
[10] = AUC in dog at 10 mg/kg, po; assay type: ADME, organism-based, Canis lupus familiaris, Plasma; design: dose 10 mg/kg, route oral; settings: plasma
[11] = Volume of distribution at steady state in dog at 3 mg/kg, iv; assay type: ADME, organism-based, Canis lupus familiaris; design: dose 3 mg/kg, route intravenous; settings: in vivo, read-out: Vdss
[12] = Clearance in rat at 3 mg/kg, iv; assay type: ADME, organism-based; design: dose 3 mg/kg, route intravenous; settings: in vivo
[13] = Efflux ratio of permeability from basolateral to apical side over apical to basolateral side in human Caco2 cells; assay type: ADME, cell-based; settings: Caco-2
[14] = AUC in monkey at 10 mg/kg, po; assay type: ADME, organism-based, Macaca mulatta; design: dose 10 mg/kg, route oral; settings: rhesus monkey, plasma
[15] = species on record: Rattus norvegicus; assay: Toxicity in rat assessed as production of goblet cell meta/hyperplasia in ileum at highest tolerable dose; assay type: organism-based; settings: in vivo
[16] = molecular target: Gamma-secretase; assay: Modulation of gamma-secretase-mediated cleavage of human APP Swedish and London mutation expressed in HEK293 cells assessed as inhibition of amyloid beta42 production after 5 hrs by sandwich immunoassay; assay type: cell-based
[17] = tested on: Cynomolgus monkey; assay: Antialzheimer activity in cynomolgus monkey assessed as reduction in amyloid beta42 level in cortex at 30 mg/kg, po after 4 hrs by alphaLISA analysis; assay type: functional, Macaca fascicularis; design: scale not given: the % may be the effect or the level left
[18] = Oral bioavailability in dog at 10 mg/kg; assay type: ADME, organism-based, Canis lupus familiaris; settings: in vivo
[19] = tested on: Cynomolgus monkey; assay: Antialzheimer activity in cynomolgus monkey assessed as reduction in amyloid beta42 level in CSF at 30 mg/kg, po after 4 hrs by alphaLISA analysis; assay type: functional, Macaca fascicularis; design: scale not given: the % may be the effect or the level left
[20] = species on record: Rattus norvegicus; assay: Toxicity in rat assessed as effect on adipsin expression in jejunum at highest tolerable dose; assay type: organism-based; settings: in vivo
[21] = AUC in rat at 10 mg/kg, po; assay type: ADME, organism-based, Plasma; design: dose 10 mg/kg, route oral; settings: plasma
[22] = Oral bioavailability in monkey at 10 mg/kg; assay type: ADME, organism-based, Macaca mulatta; settings: rhesus monkey, in vivo
[23] = tested on: Rattus norvegicus; assay: Antialzheimer activity in CD rat assessed as reduction in total amyloid beta level in plasma at 3 mg/kg, po after 3 hrs by alphaLISA analysis; assay type: functional; design: scale not given: the % may be the effect or the level left
[24] = molecular target: Gamma-secretase; assay: Modulation of gamma-secretase-mediated notch signaling in HEK293 cells transfected with human APP Swedish and London mutation and Notch1 with truncated extracellular EGF repeat domain assessed as production of notch intracellular domain by MSD-based sandwich immunoassay; assay type: cell-based
[25] = tested on: Rattus norvegicus; assay: Antialzheimer activity in CD rat assessed as reduction in amyloid beta40 level in cortex at 3 mg/kg, po after 3 hrs by alphaLISA analysis; assay type: functional; design: scale not given: the % may be the effect or the level left
[26] = Dissociation constant, pKa of the compound; assay type: physicochemical
[27] = Clearance in dog at 3 mg/kg, iv; assay type: ADME, organism-based, Canis lupus familiaris; design: dose 3 mg/kg, route intravenous; settings: in vivo
[28] = species on record: Rattus norvegicus; assay: Toxicity in rat assessed as decrease in body weight at highest tolerable dose; assay type: organism-based; settings: in vivo
[29] = Cmax in rat at 10 mg/kg, po; assay type: ADME, organism-based; design: dose 10 mg/kg, route oral; settings: in vivo
[30] = Plasma concentration in CD rat at 3 mg/kg, po after 3 hrs; assay type: ADME, organism-based; design: dose 3 mg/kg, route oral
[31] = molecular target: Gamma-secretase; assay: Modulation of gamma-secretase-mediated cleavage of human APP Swedish and London mutation expressed in HEK293 cells assessed as inhibition of amyloid beta40 production after 5 hrs by sandwich immunoassay; assay type: cell-based
[32] = Ratio of drug level in brain to plasma in CD rat at 3 mg/kg, po after 3 hrs; assay type: ADME, organism-based; design: dose 3 mg/kg, route oral; settings: read-out: BPR
[33] = Clearance in monkey at 3 mg/kg, iv; assay type: ADME, organism-based, Macaca mulatta; design: dose 3 mg/kg, route intravenous; settings: rhesus monkey, in vivo
[34] = tested on: Rattus norvegicus; assay: Antialzheimer activity in CD rat assessed as reduction in amyloid beta40 level in CSF at 3 mg/kg, po after 3 hrs by alphaLISA analysis; assay type: functional; design: scale not given: the % may be the effect or the level left
[35] = Plasma concentration in cynomolgus monkey at 30 mg/kg, po after 4 hrs; assay type: ADME, organism-based, Macaca fascicularis; design: dose 30 mg/kg, route oral
[36] = Volume of distribution at steady state in monkey at 3 mg/kg, iv; assay type: ADME, organism-based, Macaca mulatta; design: dose 3 mg/kg, route intravenous; settings: rhesus monkey, in vivo, read-out: Vdss
[37] = tested on: Rattus norvegicus; assay: Antialzheimer activity in CD rat assessed as reduction in amyloid beta42 level in CSF at 3 mg/kg, po after 3 hrs by alphaLISA analysis; assay type: functional; design: scale not given: the % may be the effect or the level left
[38] = Ratio of drug level in brain to plasma in cynomolgus monkey at 30 mg/kg, po after 4 hrs; assay type: ADME, organism-based, Macaca fascicularis; design: dose 30 mg/kg, route oral; settings: read-out: BPR
[39] = species on record: Canis familiaris; assay: Cardiotoxicity in dog assessed as effect on electrocardiographic QTc interval at compound concentration required for pharmacological effect; assay type: toxicity, organism-based, Canis lupus familiaris; settings: in vivo
[40] = tested on: Rattus norvegicus; assay: Antialzheimer activity in CD rat assessed as reduction in amyloid beta40 level in plasma at 3 mg/kg, po after 3 hrs by alphaLISA analysis; assay type: functional; design: scale not given: the % may be the effect or the level left
[41] = Volume of distribution at steady state in rat at 3 mg/kg, iv; assay type: ADME, organism-based; design: dose 3 mg/kg, route intravenous; settings: in vivo, read-out: Vdss
[42] = Cmax in monkey at 10 mg/kg, po; assay type: ADME, organism-based, Macaca mulatta; design: dose 10 mg/kg, route oral; settings: rhesus monkey, in vivo
[43] = tested on: Rattus norvegicus; assay: Antialzheimer activity in CD rat assessed as reduction in total amyloid beta level in CSF at 3 mg/kg, po after 3 hrs by alphaLISA analysis; assay type: functional; design: scale not given: the % may be the effect or the level left
[44] = molecular target: Voltage-gated inwardly rectifying potassium channel KCNH2 (Homo sapiens, UniProt Q12809); assay: Inhibition of human ERG by cell based voltage clamp assay
Chain of Voltage-gated inwardly rectifying potassium channel KCNH2 (Q12809 whole entry): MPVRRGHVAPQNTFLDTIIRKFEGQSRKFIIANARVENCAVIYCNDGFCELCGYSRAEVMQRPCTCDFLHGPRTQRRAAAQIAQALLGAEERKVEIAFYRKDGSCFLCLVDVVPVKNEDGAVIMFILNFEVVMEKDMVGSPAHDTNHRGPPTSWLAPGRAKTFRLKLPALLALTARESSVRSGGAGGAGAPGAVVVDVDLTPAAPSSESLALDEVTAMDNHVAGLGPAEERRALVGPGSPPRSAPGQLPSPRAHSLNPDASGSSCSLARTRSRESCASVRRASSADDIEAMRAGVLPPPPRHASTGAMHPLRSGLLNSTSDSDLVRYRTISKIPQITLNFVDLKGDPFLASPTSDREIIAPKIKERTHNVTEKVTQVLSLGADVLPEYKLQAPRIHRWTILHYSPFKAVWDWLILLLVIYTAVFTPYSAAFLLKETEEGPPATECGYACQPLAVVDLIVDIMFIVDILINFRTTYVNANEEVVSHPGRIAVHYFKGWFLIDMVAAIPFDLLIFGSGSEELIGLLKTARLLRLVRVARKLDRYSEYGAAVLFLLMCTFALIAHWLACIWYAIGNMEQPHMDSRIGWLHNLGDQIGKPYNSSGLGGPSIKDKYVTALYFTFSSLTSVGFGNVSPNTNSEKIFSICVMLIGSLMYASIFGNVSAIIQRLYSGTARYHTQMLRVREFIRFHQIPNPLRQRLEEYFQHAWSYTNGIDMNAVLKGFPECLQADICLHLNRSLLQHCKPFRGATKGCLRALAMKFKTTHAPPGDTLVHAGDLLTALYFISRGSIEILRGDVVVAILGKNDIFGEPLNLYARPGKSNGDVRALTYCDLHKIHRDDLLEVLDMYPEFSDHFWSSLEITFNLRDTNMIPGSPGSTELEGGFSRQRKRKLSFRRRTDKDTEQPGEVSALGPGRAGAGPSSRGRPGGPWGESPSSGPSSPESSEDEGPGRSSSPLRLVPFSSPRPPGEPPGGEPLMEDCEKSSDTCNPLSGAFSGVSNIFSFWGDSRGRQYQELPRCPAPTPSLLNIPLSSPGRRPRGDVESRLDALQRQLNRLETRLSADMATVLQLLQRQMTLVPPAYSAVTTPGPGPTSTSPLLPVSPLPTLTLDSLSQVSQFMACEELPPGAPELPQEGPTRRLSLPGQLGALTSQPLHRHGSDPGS

[45] = tested on: Rattus norvegicus; assay: Antialzheimer activity in CD rat assessed as reduction in amyloid beta42 level in cortex at 3 mg/kg, po after 3 hrs by alphaLISA analysis; assay type: functional; design: scale not given: the % may be the effect or the level left
[46] = Half life in rat at 3 mg/kg, iv; assay type: ADME, organism-based; design: dose 3 mg/kg, route intravenous; settings: in vivo

half-life [1]: 54 min
bioavailability [2]: 100%
IC50 [3]: > 20000 nM
Cmax [4]: 7.9 µM
half-life [7]: 48 min
Papp A→B [9]: 24.6 ×10⁻⁶ cm/s
AUC [10]: 27 µM·h
Vd [11]: 0.6 L/kg
clearance [12]: 1.4 mL/min/kg
efflux ratio [13]: 2
AUC [14]: 11 µM·h
IC50 [16]: 33 nM
bioavailability [18]: 69%
AUC [21]: 265 µM·h
bioavailability [22]: 34%
IC50 [24]: > 50000 nM
pKa [26]: 2.7
clearance [27]: 9 mL/min/kg
Cmax [29]: 19.8 µM
concentration at 3 h [30]: 3 µM
IC50 [31]: 123 nM
Kp at 3 h [32]: 0.49
clearance [33]: 11 mL/min/kg
concentration at 4 h [35]: 6 µM
Vd [36]: 0.8 L/kg
Kp at 4 h [38]: 1.4
Vd [41]: 0.4 L/kg
Cmax [42]: 4.9 µM
half-life [46]: 210 min
SMILES: COc1cc(/C=C2\CCCN3C2=NOC[C@@H]3c2cc(F)c(F)c(F)c2)ccc1-n1cnc(C)c1
Activity [5]: Non-toxic
Activity [6]: Non-toxic
Activity [8]: 32%
Activity [15]: Non-toxic
Activity [17]: 44%
Activity [19]: 70%
Activity [20]: Non-toxic
Activity [23]: 86%
Activity [25]: 84%
Activity [28]: Non-toxic
Activity [34]: 74%
Activity [37]: 65%
Activity [39]: Non-toxic
Activity [40]: 50%
Activity [43]: 88%
IC50 [44]: 1000 nM
Activity [45]: 63%
